Measurements reported in PMC8537068, “Do Lipids Influence Gastrointestinal Processing: A Case Study of Major Soybean Allergen Gly m 4” (Membranes, 2021).

Key:
pepsin = target: T1, pepsin (Sus scrofa, UniProt P00791); test: TNS displacement fluorescence; format: binding; settings: 4 µM protein, 4 µM TNS, 4 µM lipid; 0.05 M HCl pH 2.0, 25 °C
T1 construct: gene PGA; commercial native porcine pepsin (Sigma-Aldrich), mature enzyme without propeptide

Gly m 4 = target: T2, Gly m 4 (Glycine max, UniProt P26987); test: TNS displacement fluorescence; format: binding; settings: 4 µM protein, 4 µM TNS, 4 µM lipid; 0.01 M phosphate pH 7.4, 25 °C
T2 construct: gene PR-10
T2 sequence (P26987 1-158): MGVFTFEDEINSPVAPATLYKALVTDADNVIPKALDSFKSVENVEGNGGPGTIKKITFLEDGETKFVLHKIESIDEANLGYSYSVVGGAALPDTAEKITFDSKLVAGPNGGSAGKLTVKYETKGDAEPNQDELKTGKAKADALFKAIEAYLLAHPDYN

T1 sequence (P00791 60-385): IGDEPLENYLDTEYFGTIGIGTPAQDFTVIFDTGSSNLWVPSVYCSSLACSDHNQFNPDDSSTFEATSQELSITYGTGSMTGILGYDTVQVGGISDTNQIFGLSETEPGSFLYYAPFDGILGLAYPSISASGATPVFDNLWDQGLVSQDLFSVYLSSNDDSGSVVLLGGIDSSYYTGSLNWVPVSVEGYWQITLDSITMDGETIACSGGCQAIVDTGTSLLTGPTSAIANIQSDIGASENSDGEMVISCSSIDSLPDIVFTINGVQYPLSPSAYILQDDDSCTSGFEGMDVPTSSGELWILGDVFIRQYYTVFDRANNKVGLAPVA

SMILES | % of control TNS fluorescence (pepsin) | % of control TNS fluorescence (Gly m 4)
CCCCCCCCCCCCCCCC(=O)OC[C@@H](O)COP(=O)(O)OCC(O)CO (some centres unmarked) [LPPG, 1-palmitoyl-2-hydroxy-sn-glycero-3-phosphoglycerol] | pepsin bound to the tested FAs and LPPG with an equal efficiency | 26%
CCCCCCCC/C=C\CCCCCCCC(=O)O [OLE, oleic acid] | pepsin bound to the tested FAs and LPPG with an equal efficiency | 12%
CCCCCCCCCCCCCCCCCC(=O)O [STE, stearic acid] | pepsin bound to the tested FAs and LPPG with an equal efficiency | 
